{"source": "patent US20110217293A1", "about": "“Uses of morelloflavone” (priority 2008, published 2011)", "key": {"[1]": {"tested_on": "vascular smooth muscle cells", "assay": "Cell cycle analysis by flow cytometry", "format": "cell-based, mouse", "settings": "concentrations up to 10 mM (10 μM), 24 hr", "experimental": "(§1) Mouse vascular smooth muscle cells, isolated as described (13), were maintained in 231 media (Cascade Biologics, Portland, Oreg.) supplemented with SMGS (Cascade Biologics) in a humidified incubator at 37° C. with 5% CO2. Cells from passages 4-9 were used in all experiments. All experiments were performed in subconfluent, unsynchronized cells growing in SMGS except for the lamellipodium formation assay.\nVascular smooth muscle cells (1×106) were seeded onto 10-cm dishes and treated with various concentrations of morelloflavone. After 24 hr incubation, the cells were fixed with 70% ethanol at 4° C. overnight, treated with RNAse in PBS, stained with propidium iodide (Sigma, St. Louis, Mo.), and subjected to flow cytometric DNA content analysis using Epics XL (Beckman-Coulter, Miami, Fla.). The percentages of cells in G1, S, and G2/M phases were determined using Multi-cycle system software (Phoenix Flow System, San Diego, Calif.)."}, "[2]": {"tested_on": "vascular smooth muscle cells", "assay": "DNA fragmentation (apoptosis) assay", "format": "cell-based", "experimental": "as §1\nVascular smooth muscle cells were seeded at 1×10^5 cells per well in 24-well culture plates, treated with morelloflavone, and subjected to DNA fragmentation assay, according to the manufacturer's instructions (Cell Death Detection ELISAPLUS, Roche). Briefly, the cells were treated with […] of morelloflavone for 24 hrs. The 1×10^5 cells were lysed, cleared by centrifugation, and transferred into streptavidin-coated plates. Anti-histone antibody conjugated to biotin and anti-nucleosomal-DNA-antibody conjugated to horseradish peroxidase were added. After incubation and washing, 2,2′-azino-bis-[3-ethylbenzthiazoline-6-sulfonic acid] (ABTS) substrate solution was added. The 5 absorbance rate at 405 nm against ABTS solution was measured with the reference wavelength of 490 nm."}, "Cdc42": {"tested_on": "Cdc42", "assay": "GTPase activation assay, Cdc42", "format": "cell-based, mouse", "parameters": "dose or concentration left out as unconfirmed", "experimental": "To assess the phosphorlyation status of ERK, […] of whole cell lysates was loaded onto SDS-PAGE, and Western blot analysis was done using anti-p-ERK (Santa Cruz; E-4; sc-7383) and anti-ERK (Santa Cruz; K-23; sc-94) antibodies. To detect active RhoA, Rac1 and Cdc42, generated GST-tagged RhoA binding domain of Rhotekin protein (GST-Rhotekin-RBD) and GST-tagged p21-binding domain of p21-activated kinase 1 (PAK1)(GST-PAK1-PBD) were first generated. Briefly, E. coli BL21 cells transformed with pGEX4T-PAK1-PBD or pGEX4T-Rh,otekin-RBD were grown at 37° C. and expression of recombinant protein was induced by addition of 0.1 mM IPTG for 3 hours. Cells were resuspended in lysis buffer (50 mM Tris-HCl, pH 8.0, 10% glycerol, 20% sucrose, 2 mM DTT, 1 mg/ml leupeptin, 1 mg/ml pepstatin, and 1 mg/ml aprotinin), sonicated, and centrifuged at 4° C. for 30 min at 45,000 g. The supernatant was incubated with glutathione sepharose 4B beads (GE-Amersham, Piscataway, N.J.) for 1 hour at 4° C., and then washed 3 times in lysis buffer. Using these GST-proteins, GTPase activation assays were performed as described. […]"}, "[3]": {"tested_on": "vascular smooth muscle cells", "assay": "Cell attachment", "format": "cell-based"}, "[4]": {"assay": "Serum morelloflavone level by HPLC", "format": "in vivo, mouse", "settings": "treated apoE−/− mice, oral 0.15% w/w diet, at sacrifice", "experimental": "Measurements were performed at a magnification of 200 using a Scion Image analysis computer program (Frederick, Md.). Data were obtained from the first 2 levels where endothelial denudation occurred. For each artery, the luminal area, area inside the internal elastic lamina (IELA), and the area encircled by external elastic lamina-IELA were measured. The intimal area (IA) was calculated as the IELA minus luminal area. For the determination of serum morelloflavone levels, animal sera were first digested by proteinase K in the presence of 0.01% SDS. Morelloflavone was then extracted into ethyl acetate and lyophilized.\nThe quantification of morelloflavone was performed by HPLC as described with following modifications. The pure morelloflavone was diluted to varying concentrations ([…]), aliquoted into multiple tubes, and lyophilized. The samples were dissolved in […] of 25% acetonitrile/0.55% acetic acid 10 of which […] were injected into a Vydac C-18 reversed phase HPLC column (Grace Davison Discovery Sciences, Deerfield, Ill.) in an Agilent 1100 HPLC system (San Jose, Calif.). […] The limit of detection (LOD) is defined as the concentration of morelloflavone that yielded a signal to noise of 2:1, and was calculated at 1.06 mM, from the 20 mM standard peak (signal to noise=37.6:1). […]"}, "[5]": {"tested_on": "plasma lipid peroxidation", "assay": "Thiobarbituric acid reactive substances (TBARS) assay", "format": "in vivo, mouse", "settings": "treated Ldlr−/−Apobec1−/− mice, N=12", "experimental": "EDTA-added mouse plasma was stored at −80° C. until the assay. The assay was performed using a commercially available kit according to the manufacturer's instructions. The degree of plasma lipid peroxidation was expressed in terms of equivalent malondialdehyde (MDA) concentration (Cayman Chemical Co., Ann Arbor, Mich.)."}}, "note": "“And” between values parts separate entries of the source, which are not always exact repeats. Equal values may be shown once. “Also recorded” adds a separate entry of the source. Read-outs that look alike come from different tables or passages of the source.", "data": [{"smiles": "O=C1c2c(O)cc(O)cc2O[C@H](c2ccc(O)cc2)[C@H]1c1c(O)cc(O)c2c(=O)cc(-c3ccc(O)c(O)c3)oc12", "note": "[morelloflavone, 5,7, 4′, 5″, 7″, 3″, 4″-heptahydroxy-[3,8″]-flavonylflavanone]", "values": [{"measurement": "effect on cell cycle progression", "setting": "[1]", "result": "did not significantly affect; also recorded: does not affect cell cycle progression"}, {"measurement": "DNA fragmentation indices, trend with concentration", "setting": "[2]; 0, 1, 10, 100 mM", "result": "decreased as morelloflavone concentrations increased"}, {"measurement": "apoptosis / induction of DNA fragmentation", "setting": "[2]; concentrations equal to or less than 100 mM, 24 hrs", "result": "did not induce DNA fragmentation; also recorded: does not cause apoptosis; also recorded: does not induce cytotoxicity"}, {"measurement": "activation of Cdc42", "setting": "Cdc42", "result": "blocks the activation"}, {"measurement": "activation of Cdc42", "setting": "Cdc42; concentration not given", "result": "no significant effect; also recorded: without affecting"}, {"measurement": "effect on cell attachment", "setting": "[3]", "result": "does not affect cell attachment"}, {"measurement": "serum concentration of morelloflavone", "setting": "[4]", "result": "1370 nM and 1400 nM"}, {"measurement": "Thiobarbituric acid reactive substances concentration (plasma)", "setting": "[5]", "result": "6.33 ± 1.47", "unit": "µM"}]}]}
